# Measured values as given in patent US9283279B2, “Targeted polymeric conjugates and uses thereof” (priority 2011, dated 2016).
# Assays:
# [1] = test system: 4T1-mCherry murine mammary adenocarcinoma in the tibia; format: in vivo, Balb/c female mice; conditions: 4T1-mCherry tumors in the tibia
# [2] = Pharmacokinetic studies in mice; format: in vivo, female Balb/C mice
# Experimental: The mice were randomly divided in three groups of 10 animals. […] To 50 μL of plasma, 350 μL of CH3CN was added for protein precipitation and the resulting mixture was centrifuged at 20,000 g for 5 minutes. A 300 μL aliquot of the supernatant was collected and freeze-dried. The residue was dissolved in 50 μL of CH3OH and analyzed by RP-HPLC under the condition reported hereinabove.
# [3] = test system: PC3 human prostate adenocarcinoma cells; assay: PC3 cell viability / proliferation assay (MTT); format: cell-based; conditions: PC-3, 72 hours incubation
# Experimental: PC3 cells were plated onto 96 well plate (5×10^3 cells/well) in DMEM supplemented with 5% FBS and incubated for 24 h (37° C.; 5% CO2). […] Following incubation, PC3 cells were counted by MTT.
# [4] = test system: 4T1-mCherry tumors in the tibia; assay: Microvessel density (CD34 staining), 4T1-mCherry model; format: in vivo, Balb/c female mice; conditions: compared to saline-treated control group
# Experimental: Immunohistochemistry of tumors in the tibia was performed using samples fixed with 4% paraformaldehyde, following decalcification in EDTA and paraffin embedding by the standard procedure. Paraffin sections of 4 μm were de-paraffinized, rehydrated, and stained by hematoxylin and eosin (H&E). For CD34 staining, slides were deparaffinized and pre-treated with 10 mM citrate buffer, pH=6.0, for 20 minutes in a steam pressure cooker (Decloaking Chamber, BioCare Medical, Walnut Creek, Calif.).
# All further steps were performed at room temperature in a hydrated chamber. Slides were covered with Peroxidase Block (Merck, Germany) for 10 minutes to quench endogenous peroxidase activity, followed by incubation with 2% of horse serum in 50 mM Tris-HCl, pH 7.4, for 30 minutes to block non-specific binding sites. Primary rat anti-murine CD34 antibody (MEC 14.7 1:50 dilution; Abcam, Cambridge, Mass.) was applied in 1% rabbit serum albumin in Tris-HCl, pH 7.4 at 4° overnight. Slides were washed in 50 mM TrisHCl, pH 7.4 and rabbit anti-rat antibody (1:750 dilution; Vector Laboratories, Calif., USA) was applied for 30 minutes. Following further washing, immunoperoxidase staining was developed using HistoMark TrueBlue peroxidase system (KPL, USA) per the manufacturer instructions and counterstained with safranin.
# [5] = blood samples on day 11; 15 mg/kg PTX or equivalent
# Experimental: Samples were counted no longer than five minutes after blood was drawn from mice. Ten μl of blood samples were mixed with 90 μl of track solution (1% acetic acid in DDW), and cells were counted by a Z1 Coulter® Particle Counter (Beckman Coulter™). Data is expressed as mean±s.e.m.
# [6] = test system: circulating endothelial cells (CEC) and circulating endothelial progenitor (CEP); conditions: day 11 of treatment
# [7] = female, mouse, plasma, iv, i.v. 10 mg/Kg PTX equiv., Balb/C mice
compound,measurement,setting,value
"CC(=O)O[C@H]1C(=O)[C@@]2(C)[C@H]([C@H](OC(=O)c3ccccc3)[C@]3(O)C[C@H](OC(=O)[C@H](O)[C@@H](NC(=O)c4ccccc4)c4ccccc4)C(C)=C1C3(C)C)[C@]1(OC(C)=O)CO[C@@H]1C[C@@H]2O [PTX, Paclitaxel]",H&E histology of the tibia,[1],tumor filled the bone marrow space and destroyed both trabecular and cortical bone
same,Vd,[2]; [7],0.161 ± 0.0021 L
same,clearance,[2]; [7],7.4 ± 1.5 mL/min
same,half-life,"[2]; female, mouse, plasma, iv, i.v. 10 mg/Kg PTX equiv., Balb/C mice, read-out: T1/2β (elimination half-life)",15.1 min
same,T1/2α,"[2]; i.v. 10 mg/Kg PTX equiv., Balb/C mice",1.3 ± 0.3
same,time at which PTX was not detectable,"[2]; serum PTX by RP-HPLC, i.v. 10 mg/Kg",60 min
same,IC50,[3],25 to 60 nM
same,reduction in micro-vessel density (MVD),[4],about 50%
same,WBC counts,[5],significant decrease
same,viable CEP levels,[6],increase
